Reference: publication PMC11833358 (Food Chemistry: X, 2025)
Values joined by “and” are separate entries in the source; they are usually repeats but may differ in a detail not shown here. Identical values can stand only once. Marks after values point to notes of the source that are not given here.

Key:
in vitro = details: human, Caco-2
Caco-2 cell monolayer [1] = details: for ER (efflux ratio, Papp(BL→AP)/Papp(AP→BL)) / Papp (AP→BL) / Papp (BL→AP): constituent of DS 100 μg/mL, 180 min; for Papp (AP→BL) / Papp (BL→AP): from UPLC-ESI-MS/MS peak areas
Caco-2 cell monolayer [2] = details: literature report; ref Chen et al., 2021; cited from earlier work
Caco-2 cell monolayer [3] = assay: Phenol red flux and apparent permeability across Caco-2 cell monolayer; format: in vitro ADME, human; details: AP→BL, 60 min, 5 μg/mL phenol red

Compound | Papp A→B at 180 min, 100 μg/mL (in vitro) [×10⁻⁶ cm/s] | Papp B→A at 180 min, 100 μg/mL (in vitro) [×10⁻⁶ cm/s] | Papp (AP→BL) (Caco-2 cell monolayer [1]) | also measured
COc1cc(C[C@H]2C(=O)OC[C@@H]2Cc2ccc(OC)c(OC)c2)ccc1O [Arctigenin] | 5.37 | 25.2 |  | efflux ratio at 180 min, 100 μg/mL (in vitro): 4.69
COc1ccc(-c2cc(=O)c3c(O)c(OC)c(OC)cc3o2)cc1O [Eupatorin] | 2.17 | 17.3 |  | 
5,2′-Dihydroxy-7,8-dimethoxyflavone glycoside |  |  | 3.05 10^−6 cm/s | ER (efflux ratio, Papp(BL→AP)/Papp(AP→BL)) (Caco-2 cell monolayer [1]): 2.29; Papp (BL→AP) (Caco-2 cell monolayer [1]): 6.97 10^−6 cm/s
O=c1c(-c2ccc(O[C@@H]3O[C@H](CO)[C@@H](O)[C@H](O)[C@H]3O)cc2)coc2cc(O)cc(O)c12 [Sophoricoside] | 1.63 | 9.89 |  | 
CC(=O)Oc1ccccc1 [Phenyl acetate] | 8.89 | 19.4 |  | 
COc1ccc2c(c1)OCC(=Cc1cccnc1)C2=O [7-Methoxy-3-[1-(3-pyridyl)methylidene]-4-chromanone] |  | 2.81 | 20.87 10^−6 cm/s | efflux ratio at 180 min, 100 μg/mL (in vitro): 0.13
COc1cc(/C=C/C(=O)O)ccc1O [Ferulic acid] |  |  | 17.37 10^−6 cm/s | Mode of translocation (Caco-2 cell monolayer [2]): active transport; ER (efflux ratio, Papp(BL→AP)/Papp(AP→BL)) (Caco-2 cell monolayer [1]): 2.25; Papp (BL→AP) (Caco-2 cell monolayer [1]): 39.16 10^−6 cm/s
COc1ccc(/C=C/C(=O)O)cc1O [Isoferulic acid] |  | 49.5 | 24.51 10^−6 cm/s | 
O=S1(=O)OC(c2ccc(O)cc2)(c2ccc(O)cc2)c2ccccc21 [Phenol red] |  |  |  | Phenol red flux QBL (Caco-2 cell monolayer [3]; cell culture time 3 days): 4.18 ± 0.43^a μg; Phenol red flux QBL (Caco-2 cell monolayer [3]; cell culture time 6 days): 1.94 ± 0.70^b μg; Phenol red flux QBL (Caco-2 cell monolayer [3]; cell culture time 9 days): 1.36 ± 0.44^bc μg; Phenol red flux QBL (Caco-2 cell monolayer [3]; cell culture time 12 days): 0.88 ± 0.15^cd μg; Phenol red flux QBL (Caco-2 cell monolayer [3]; cell culture time 15 days): 0.49 ± 0.21 μg and 0.49 ± 0.21^d μg; Phenol red flux QBL (Caco-2 cell monolayer [3]; cell culture time 18 days): 0.40 ± 0.09^d μg; Phenol red flux QBL (Caco-2 cell monolayer [3]; cell culture time 21 days): 0.37 ± 0.07^d μg
COc1cc(-c2oc3cc(O)c(OC)c(O)c3c(=O)c2OC)cc(OC)c1O [5,7,4′-Trihydroxy-3,6,3′,5′-tetramethoxyflavone] | 3.24 | 23.1 |  | Differential metabolite TSA vs. TSB (Caco-2 cell monolayer [1]; VIP ≥ 1, p < 0.05, fold change >2.0 or < 0.5): upregulated; efflux ratio at 180 min, 100 μg/mL (in vitro): 7.13
COc1cc([C@@H]2Oc3c(OC)cc(CCCO)cc3[C@H]2CO)ccc1O [Dihydrodehydrodiconiferyl alcohol] | 3.24 | 18.3 |  | 
O=c1c(O[C@@H]2O[C@H](CO)[C@@H](O)[C@H](O)[C@H]2O)c(-c2ccc(O)cc2)oc2cc(O)cc(O)c12 [Astragalin] | 0.78 | 4.26 |  | 
COc1cc(O)c(CC=C(C)C)c2c1C(=O)CC(c1ccc(O)cc1)O2 (stereo not drawn) [Isoxanthohumol] | 3.5 | 23.2 |  | Mode of translocation (Caco-2 cell monolayer [2]): active transport
